# Measured values as given in PMC4627284, “High-throughput simultaneous screen and counterscreen identifies homoharringtonine as synthetic lethal with von Hippel-Lindau loss in renal cell carcinoma” (Oncotarget, 2015).
# Like-named read-outs stand apart in the source and are kept apart here.
# What was measured:
# [1] = Pharmacokinetic analysis after a single dose by oral gavage; type: in vivo, NOD/SCID mice; conditions: for AUC(0-inf) / Cmax / Tmax / half-life / Vd/F: female, NOD/SCID, mouse, plasma; for half-life: read-out: Terminal t½ (converted); for Vd/F: read-out: Vz/F
# Method: We evaluated PK parameters after administration of a single dose of HHT by oral gavage to mice of 0.4 mg/kg, 0.7 mg/kg and 2 mg/kg (Table 1). […] Treatment with 0.4 mg/kg HTT by gavage most closely approximated human exposures. […] Given our in vitro studies, we sought to sustain 50 nM drug levels and mice were dosed with 0.7 mg/kg HHT given by gavage twice daily.
# Female NOD/SCID mice (6-7 weeks) were administered homoharringtonine (HHT) by oral gavage. DMSO was used to wet the compound which was subsequently diluted in normal saline (pH 7.2) prior to administration (final DMSO < 5%). Animals were sacrificed in duplicate by inhalation overdose of CO2 at varying times post-dose and bled by cardiac puncture using acidified citrate dextrose (ACD) as the anticoagulant. Plasma was isolated after centrifugation at 9,600 x g for 10 minutes at 4°C. Protein was precipitated from 100 μl of plasma with 100 μl of acetonitrile containing 100 ng/ml of n-benzylbenzamide, which was used as an internal standard (IS), and 0.2% formic acid. After extensive vortexing, samples were incubated for 10 minutes at RT and spun twice at 16,100 x g for 5 minutes. The supernatant was evaluated by LC-MS/MS using a Shimadzu (Columbia, MD) Prominence LC coupled to an AB Sciex (Framingham, MA) 3200 Qtrap mass spectrometer. Extraction conditions were optimized prior to PK analysis for efficient and reproducible recovery over a three log range of concentrations. Analytical standards and quality control samples were prepared in a similar fashion by spiking commercial CD-1 mouse plasma (Bioreclamation, Westbury, NY) with known quantities of HHT. Chromatography conditions were as follows: an Agilent (Santa Clara, CA) C18 XDB, 5 micron packing, 50 × 4.6 mm size column was used for reverse phase chromatography. Buffer A consisted of dH2O + 0.1% formic acid and Buffer B consisted of methanol + 0.1% formic acid. Gradient conditions utilized were: 0.01-1.0 min 3% B, 1.0-1.5 min gradient to 100% B,1.5-3.0 min 100% B, 3.0-3.1 min gradient to 3% B, 3.1-4.1 min 3% B. HHT was detected as the 546.3 to 298.3 transition, and the IS (n-benzylbenzamide) as the 212.1 to 91.1 transition. Data were analyzed using Analyst software (AB Sciex.) A value 3x above the signal obtained in the blank plasma was designated as the limit of detection (LOD). The limit of quantitation (LOQ) was defined as the lowest concentration on the standard curve at which back calculation yielded a concentration within 20% of the theoretical value and above the LOD signal. The LOQ for HHT was 0.5 ng/ml. Pharmacokinetic properties were evaluated using the noncompartmental analysis tool in WinNonlin (Certara, Corp., St. Louis, MO). Sparse sampling was used for data analysis. Terminal half-life was calculated as the ln(2)/λz where λz is a first order rate constant associated with the terminal (log-linear) portion of the curve. It is estimated by linear regression of time vs. log concentration by the software for three or more of the final nonzero data points. Tmax (time to maximal drug concentration) and Cmax (maximal drug concentration) were determined by visual inspection. Area under the concentration time curve (AUCinf) from time 0 to infinity was determined by linear trapezoidal analysis. Apparent Volume of Distribution (Vz/F) is based on the terminal phase and is calculated as Dose/λz*AUCinf while Apparent Clearance (CL/F) is calculated as Dose/AUCinf. Calculation of Absolute Vz and CL requires knowledge of oral bioavailability (F) which is calculated as AUCoral/AUCiv X Dose iv/Doseoral but was not determined here because an IV PK was not performed.
# [2] = set-up: method as in PMID 3598625; conditions: cited from earlier work
# advanced ccRCC = tested on: advanced ccRCC; set-up: method as in PMID 9157078; conditions: 14 patients with advanced ccRCC, 1996; cited from earlier work
# [3] = tested on: 786-O EV^GFP (VHL-deficient) cells; experiment: Western blot for Caspase 9 and Bcl-xL; type: cell-based, human
# Method: (§1) Figure 2 Homoharringtonine (HHT) preferentially induces cell death in VHL-deficient 786-O cells A. 786-O cells with VHL mutation (green) or with VHL-reconstituted (red) were treated with different concentrations of HHT (0, 25, 50, or 100 nM) for 0, 6, 12, 24, 36, or 48 hours, and cell death was measured by trypan blue exclusion assay (n = 3 for each concentration and time point; *p < 0.05, **p < 0.001, ***p < 0.0001 between 786-O EV cells and 786-O with VHL reconstituted at the same concentration and time point). B. […] Blots were probed for Bcl-xL and Caspase 9, and α-Tubulin as loading control. Arrow indicates the cleaved Caspase 9 product.
# [4] = tested on: 786-O VHL^mCh (VHL-reconstituted) cells; experiment: Western blot for Caspase 9 and Bcl-xL; type: cell-based, human; conditions: 24 hours
# Method: as §1
smiles,measurement,setting,value
"COC(=O)C[C@](O)(CCCC(C)(C)O)C(=O)O[C@@H]1C(OC)=C[C@]23CCCN2CCc2cc4c(cc2[C@H]13)OCO4 [HHT, homoharringtonine]",Cl/F,"[1]; 0.4 mg/kg oral gavage, mice",32.7 mL/h
same,Cl/F,"[1]; 0.7 mg/kg oral gavage, mice",30.5 mL/h
same,time HHT concentrations above 50 nM were sustained,"[1]; 0.7 mg/kg oral gavage, mice, 50 nM equivalent to 27.3 ng/mL",~ 6 hours
same,Cl/F,"[1]; 2 mg/kg oral gavage, mice",46.6 mL/h
same,AUC(0-inf),"[1]; 0.4 mg/kg oral gavage, mice",251 ng·h/mL
same,Cmax,"[1]; 0.4 mg/kg oral gavage, mice",28.8 ng/mL
same,Tmax,"[1]; 0.4 mg/kg oral gavage, mice",0.17 h
same,half-life,"[1]; 0.4 mg/kg oral gavage, mice",1.86 h
same,Vd/F,"[1]; 0.4 mg/kg oral gavage, mice",0.0877 L
same,AUC(0-inf),"[1]; 0.7 mg/kg oral gavage, mice",440 ng·h/mL
same,Cmax,"[1]; 0.7 mg/kg oral gavage, mice",57.8 ng/mL
same,Tmax,"[1]; 0.7 mg/kg oral gavage, mice",0.17 h
same,half-life,"[1]; 0.7 mg/kg oral gavage, mice",2.8 h
same,Vd/F,"[1]; 0.7 mg/kg oral gavage, mice",0.123 L
same,AUC(0-inf),"[1]; 2 mg/kg oral gavage, mice",905 ng·h/mL
same,Cmax,"[1]; 2 mg/kg oral gavage, mice",97.2 ng/mL
same,Tmax,"[1]; 2 mg/kg oral gavage, mice",1.5 h
same,half-life,"[1]; 2 mg/kg oral gavage, mice",6.74 h
same,Vd/F,"[1]; 2 mg/kg oral gavage, mice",0.453 L
same,time at which Cmax was reached,"[1]; two lower doses (0.4 and 0.7 mg/kg), first time point sampled",10 min
same,blood-brain barrier penetration,[2],penetrates the blood-brain barrier
same,outcome of phase II trial,advanced ccRCC,halted due to toxicity
same,caspase 9 cleavage,"[3]; 50 nM and 100 nM, within 12 hours",observed
same,Bcl-xL expression,[3]; 24 hours,not upregulated
same,Bcl-xL expression,[4],upregulated
